Test results taken from article PMC8897147 (Acta Pharmaceutica Sinica. B, 2021).
Entries after “also recorded” stand apart in the source; their conditions may differ. Where two headings read alike, the source gives them in different places. Blank lines part the entries; values can stand above or below the molecule they belong to.

Assays:
GHRHR [1] = biological target: T1, GHRHR (Homo sapiens, UniProt Q02643); test: Gαq activation; details: HEK293-A, HEK293A, % of max, receptor only, mean ± SEM n≥3
T1 sequence (Q02643 23-423): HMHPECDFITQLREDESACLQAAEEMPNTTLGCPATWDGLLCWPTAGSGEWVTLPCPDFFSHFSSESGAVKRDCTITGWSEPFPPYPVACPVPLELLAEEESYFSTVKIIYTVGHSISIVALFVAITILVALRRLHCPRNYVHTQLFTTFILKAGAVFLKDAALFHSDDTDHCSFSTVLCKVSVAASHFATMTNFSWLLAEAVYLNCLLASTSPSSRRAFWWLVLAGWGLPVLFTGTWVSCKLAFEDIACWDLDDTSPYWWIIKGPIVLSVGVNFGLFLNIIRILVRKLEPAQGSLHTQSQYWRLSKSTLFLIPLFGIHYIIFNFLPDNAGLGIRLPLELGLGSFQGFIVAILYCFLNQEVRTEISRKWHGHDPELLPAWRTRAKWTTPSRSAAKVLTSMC

GHRHR [2] = biological target: T1, GHRHR; test: cAMP accumulation; details: COS-7, COS-7, % of max, receptor only, mean ± SEM n≥3
SV1 [3] = biological target: T2, SV1 (Homo sapiens, UniProt Q02643); test: cAMP accumulation; details: COS-7, COS-7, % of max, receptor only, mean ± SEM n≥3
T2 sequence (Q02643 90-423 limits assumed): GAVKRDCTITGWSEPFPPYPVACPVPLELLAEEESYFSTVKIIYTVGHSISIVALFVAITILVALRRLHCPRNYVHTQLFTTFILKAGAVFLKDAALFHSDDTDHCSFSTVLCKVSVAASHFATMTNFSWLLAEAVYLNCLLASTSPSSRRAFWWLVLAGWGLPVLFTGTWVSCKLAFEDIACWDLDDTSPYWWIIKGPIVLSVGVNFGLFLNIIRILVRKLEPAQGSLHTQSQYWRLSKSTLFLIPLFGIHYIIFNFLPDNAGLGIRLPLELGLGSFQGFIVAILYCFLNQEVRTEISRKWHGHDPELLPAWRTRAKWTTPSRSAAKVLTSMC

GHRHR [4] = biological target: T1, GHRHR; test: β-Arrestin1 recruitment; details: COS-7, COS-7, % of max, receptor only, mean ± SEM n≥3
SV1 [5] = biological target: T2, SV1; test: β-Arrestin1 recruitment; details: COS-7, COS-7, % of max, receptor only, mean ± SEM n≥3
SV1 [6] = biological target: T2, SV1; test: Gαq activation; details: HEK293A; no RAMP; data not shown
β2-AR [7] = test: cAMP accumulation; details: COS-7, mean ± SEM n≥3
β2-AR [8] = test: Gαq activation; details: HEK293A, mean ± SEM n≥3
β2-AR [9] = test: β-Arrestin1 recruitment; details: COS-7, mean ± SEM n≥3; for Emax: % of max, receptor only
β2-AR [10] = test: β-Arrestin2 recruitment; details: COS-7, mean ± SEM n≥3; for Emax: % of max, receptor only
SV1 [11] = biological target: T2, SV1; test: BRET GPCR–RAMP interaction; format: binding; details: COS-7; receptor-Rluc8:RAMP-Ypet 1:0.25 to 1:16; pH 7.4, 37 °C; mean ± SEM n≥3
GLP-1R = GLP-1R (Homo sapiens, UniProt P43220); test: BRET GPCR–RAMP interaction; format: binding; details: COS-7; receptor-Rluc8:RAMP-Ypet 1:0.25 to 1:16; pH 7.4, 37 °C; mean ± SEM n≥3
Sequence of GLP-1R (P43220 24-463): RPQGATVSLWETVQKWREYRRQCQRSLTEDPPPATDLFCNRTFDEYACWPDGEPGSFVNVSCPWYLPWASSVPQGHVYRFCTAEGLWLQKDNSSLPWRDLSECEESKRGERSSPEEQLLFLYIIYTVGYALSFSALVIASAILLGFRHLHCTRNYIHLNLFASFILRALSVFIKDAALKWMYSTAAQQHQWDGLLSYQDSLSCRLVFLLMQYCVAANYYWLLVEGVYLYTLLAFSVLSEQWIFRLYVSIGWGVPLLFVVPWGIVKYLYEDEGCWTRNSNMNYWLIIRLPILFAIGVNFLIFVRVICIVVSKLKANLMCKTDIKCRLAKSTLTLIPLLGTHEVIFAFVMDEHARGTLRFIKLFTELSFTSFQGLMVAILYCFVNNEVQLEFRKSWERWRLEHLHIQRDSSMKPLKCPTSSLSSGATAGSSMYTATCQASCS

SCTR [12] = test: BRET GPCR–RAMP interaction; format: binding; details: COS-7; receptor-Rluc8:RAMP-Ypet 1:0.25 to 1:16; pH 7.4, 37 °C; mean ± SEM n≥3
GHRHR [13] = biological target: T1, GHRHR; details: HEK293T cells ref [11]; cited from earlier work
GHRHR [14] = biological target: T1, GHRHR; test: BRET GPCR–RAMP interaction; format: binding; details: COS-7
GIPR = biological target: T3, GIPR (Homo sapiens, UniProt P48546); test: BRET GPCR–RAMP interaction; format: binding; details: COS-7; receptor-Rluc8:RAMP-Ypet 1:0.25 to 1:16; pH 7.4, 37 °C; mean ± SEM n≥3
T3 sequence (P48546 22-466): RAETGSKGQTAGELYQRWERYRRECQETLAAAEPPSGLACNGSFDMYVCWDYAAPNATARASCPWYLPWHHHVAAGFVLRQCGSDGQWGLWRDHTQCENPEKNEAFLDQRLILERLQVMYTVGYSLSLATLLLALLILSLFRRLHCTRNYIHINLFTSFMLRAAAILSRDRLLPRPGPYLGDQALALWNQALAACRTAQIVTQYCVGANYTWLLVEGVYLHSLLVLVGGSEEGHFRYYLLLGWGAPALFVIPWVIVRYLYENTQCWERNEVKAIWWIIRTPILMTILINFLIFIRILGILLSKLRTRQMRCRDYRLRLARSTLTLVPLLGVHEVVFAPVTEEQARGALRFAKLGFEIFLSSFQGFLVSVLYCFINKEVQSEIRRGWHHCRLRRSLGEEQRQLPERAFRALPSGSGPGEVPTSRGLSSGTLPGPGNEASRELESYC

CLR = CLR (Homo sapiens, UniProt Q16602); test: BRET GPCR–RAMP interaction; format: binding; details: COS-7; receptor-Rluc8:RAMP-Ypet 1:0.25 to 1:16; pH 7.4, 37 °C; mean ± SEM n≥3
Sequence of CLR (Q16602 23-461): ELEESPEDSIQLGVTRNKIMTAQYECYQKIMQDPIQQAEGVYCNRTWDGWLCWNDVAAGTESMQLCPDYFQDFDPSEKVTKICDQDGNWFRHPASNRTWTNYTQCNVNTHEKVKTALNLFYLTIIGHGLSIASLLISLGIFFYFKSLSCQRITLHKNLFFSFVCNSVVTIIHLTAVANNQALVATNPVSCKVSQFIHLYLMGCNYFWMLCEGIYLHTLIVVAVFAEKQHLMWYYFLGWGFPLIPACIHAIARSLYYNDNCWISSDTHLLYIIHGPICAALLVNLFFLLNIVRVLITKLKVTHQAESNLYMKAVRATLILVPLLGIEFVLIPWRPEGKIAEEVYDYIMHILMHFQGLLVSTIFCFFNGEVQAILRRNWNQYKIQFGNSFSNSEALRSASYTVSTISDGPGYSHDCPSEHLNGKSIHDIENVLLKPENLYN

COS-7 cells = test: RAMP cell surface expression; format: cell-based; details: co-expression with SCTR, FLAG-RAMP
GCGR = GCGR (Homo sapiens, UniProt P47871); test: BRET GPCR–RAMP interaction; format: binding; details: COS-7; receptor-Rluc8:RAMP-Ypet 1:0.25 to 1:16; pH 7.4, 37 °C; mean ± SEM n≥3
Sequence of GCGR (P47871 26-477, species assumed): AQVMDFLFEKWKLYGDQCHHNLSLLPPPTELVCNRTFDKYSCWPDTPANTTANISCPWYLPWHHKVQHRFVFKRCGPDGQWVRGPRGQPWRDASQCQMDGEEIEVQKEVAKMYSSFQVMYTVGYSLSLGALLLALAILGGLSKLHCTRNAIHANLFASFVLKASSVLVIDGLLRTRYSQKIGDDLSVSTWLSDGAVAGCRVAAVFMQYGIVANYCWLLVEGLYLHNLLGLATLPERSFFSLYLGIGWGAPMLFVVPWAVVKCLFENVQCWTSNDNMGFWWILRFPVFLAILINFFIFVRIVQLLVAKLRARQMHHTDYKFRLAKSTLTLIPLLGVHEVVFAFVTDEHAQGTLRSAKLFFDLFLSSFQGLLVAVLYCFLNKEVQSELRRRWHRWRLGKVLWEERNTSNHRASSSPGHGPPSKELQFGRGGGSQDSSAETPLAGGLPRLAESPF

GLP-2R = biological target: T4, GLP-2R (Homo sapiens, UniProt O95838); test: BRET GPCR–RAMP interaction; format: binding; details: COS-7
T4 sequence (O95838 1-553): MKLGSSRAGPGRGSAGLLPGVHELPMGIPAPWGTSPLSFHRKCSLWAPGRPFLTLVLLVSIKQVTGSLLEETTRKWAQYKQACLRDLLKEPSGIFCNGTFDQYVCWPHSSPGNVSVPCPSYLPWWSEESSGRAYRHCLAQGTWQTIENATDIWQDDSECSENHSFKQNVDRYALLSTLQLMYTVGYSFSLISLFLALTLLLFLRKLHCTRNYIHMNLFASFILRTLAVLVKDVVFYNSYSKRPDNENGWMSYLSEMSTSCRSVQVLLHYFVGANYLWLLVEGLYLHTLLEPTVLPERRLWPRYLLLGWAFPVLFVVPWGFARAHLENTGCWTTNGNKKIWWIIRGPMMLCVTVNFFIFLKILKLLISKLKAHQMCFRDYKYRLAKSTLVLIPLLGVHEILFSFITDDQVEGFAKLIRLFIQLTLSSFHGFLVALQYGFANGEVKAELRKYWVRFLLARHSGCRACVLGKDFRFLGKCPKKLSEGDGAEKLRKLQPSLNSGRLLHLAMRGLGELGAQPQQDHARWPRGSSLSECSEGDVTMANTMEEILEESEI

SCTR [15] = test: Gαq activation; details: HEK293A, % of max, receptor only, mean ± SEM n≥3
SCTR [16] = test: β-Arrestin2 recruitment; details: COS-7, % of max, receptor only, mean ± SEM n≥3
SCTR [17] = test: cAMP accumulation; details: COS-7; vector (no RAMP); % of max, receptor only; mean ± SEM n≥3
SCTR [18] = test: β-Arrestin1 recruitment; details: COS-7, % of max, receptor only, mean ± SEM n≥3
[19] = receptor-Rluc8:RAMP-Ypet 1:0.25 to 1:16, pH 7.4, 37 °C, mean ± SEM n≥3

Emax (GHRHR [1]; RAMP1): 91.8 ± 8.3%
Emax (GHRHR [1]; RAMP3): 87.9 ± 8%
Emax (GHRHR [1]; vector (no RAMP)): 100 ± 6.9%
Emax (GHRHR [2]; RAMP1): 104 ± 1.2%
Emax (GHRHR [2]; RAMP2): 102 ± 1.4%
Emax (GHRHR [2]; RAMP3): 100 ± 1.5%
Emax (SV1 [3]; RAMP1): 100 ± 3.4%
Emax (SV1 [3]; RAMP2): 102 ± 4.2%
Emax (SV1 [3]; RAMP3): 100 ± 2%
Emax (SV1 [3]; vector (no RAMP)): 100 ± 1.8%
Emax (GHRHR [4]; RAMP1): 124 ± 42.2%
Emax (GHRHR [4]; RAMP2): 124 ± 34%
Emax (GHRHR [4]; RAMP3): 102 ± 45.7%
Emax (GHRHR [4]; vector (no RAMP)): 100 ± 25.3%
Emax (SV1 [5]; RAMP1): 188 ± 36.8%
Emax (SV1 [5]; RAMP2): 182 ± 44.2%
Emax (SV1 [5]; RAMP3): 168 ± 49.1%
Emax (SV1 [5]; vector (no RAMP)): 100 ± 11.2%
Gαq response, receptor alone (SV1 [6]): did not affect Gαq response
Molecule: CC[C@H](C)[C@H](NC(=O)[C@H](C)NC(=O)[C@H](CC(=O)O)NC(=O)[C@H](C)NC(=O)[C@@H](N)Cc1ccc(O)cc1)C(=O)N[C@@H](Cc1ccccc1)C(=O)N[C@H](C(=O)N[C@@H](CC(N)=O)C(=O)N[C@@H](CO)C(=O)N[C@@H](Cc1ccc(O)cc1)C(=O)N[C@@H](CCCNC(=N)N)C(=O)N[C@@H](CCCCN)C(=O)N[C@H](C(=O)N[C@@H](CC(C)C)C(=O)NCC(=O)N[C@@H](CCC(N)=O)C(=O)N[C@@H](CC(C)C)C(=O)N[C@@H](CO)C(=O)N[C@@H](C)C(=O)N[C@@H](CCCNC(=N)N)C(=O)N[C@@H](CCCCN)C(=O)N[C@@H](CC(C)C)C(=O)N[C@@H](CC(C)C)C(=O)N[C@@H](CCC(N)=O)C(=O)N[C@@H](CC(=O)O)C(=O)N[C@H](C(=O)N[C@@H](CCSC)C(=O)N[C@@H](CO)C(=O)N[C@@H](CCCNC(=N)N)C(=O)N[C@@H](CCC(N)=O)C(=O)N[C@@H](CCC(N)=O)C(=O)NCC(=O)N[C@@H](CCC(=O)O)C(=O)N[C@@H](CO)C(=O)N[C@@H](CC(N)=O)C(=O)N[C@@H](CCC(N)=O)C(=O)N[C@@H](CCC(=O)O)C(=O)N[C@@H](CCCNC(=N)N)C(=O)NCC(=O)N[C@@H](C)C(=O)N[C@@H](CCCNC(=N)N)C(=O)N[C@@H](C)C(=O)N[C@@H](CCCNC(=N)N)C(=O)N[C@@H](CC(C)C)C(N)=O)[C@@H](C)CC)C(C)C)[C@@H](C)O [GHRH, growth hormone-releasing hormone]

pEC50 (β2-AR [7]; RAMP1): 9.6 ± 0.1
pEC50 (β2-AR [7]; RAMP2): 9.7 ± 0
pEC50 (β2-AR [7]; RAMP3): 9.7 ± 0.1
pEC50 (β2-AR [7]; vector (no RAMP)): 9.6 ± 0
pEC50 (β2-AR [8]; RAMP1): 6.5 ± 0.2
pEC50 (β2-AR [8]; RAMP2): 6.3 ± 0.4
pEC50 (β2-AR [8]; RAMP3): 6.9 ± 0.3
pEC50 (β2-AR [8]; vector (no RAMP)): 6.9 ± 0.2
pEC50 (β2-AR [9]; RAMP1): 6 ± 0.4
pEC50 (β2-AR [9]; RAMP2): 5.8 ± 0.5
pEC50 (β2-AR [9]; RAMP3): 6 ± 0.4
pEC50 (β2-AR [9]; vector (no RAMP)): 6.2 ± 0.3
pEC50 (β2-AR [10]; RAMP1): 6.7 ± 0.2
pEC50 (β2-AR [10]; RAMP2): 6.5 ± 0.2
pEC50 (β2-AR [10]; RAMP3): 6.4 ± 0.2
pEC50 (β2-AR [10]; vector (no RAMP)): 6.4 ± 0.1
Molecule: (−)-Adrenaline
Emax (β2-AR [9]; RAMP1): 77.3 ± 11.1%
Emax (β2-AR [9]; RAMP2): 83.4 ± 15%
Emax (β2-AR [10]; RAMP1): 79.1 ± 5.7%
Emax (β2-AR [10]; RAMP2): 90 ± 5.4%
Emax (β2-AR [10]; RAMP3): 79.2 ± 6.1%

Bmax (maximum measured BRET value) (SV1 [11]): 1.364 ± 0.244
Bmax (maximum measured BRET value) (GLP-1R): 2.039 ± 1.234
interaction in words (GHRHR [14]; BRET): readily observed
Bmax (maximum measured BRET value) (GHRHR [14]; [19]): 1.122 ± 0.193
Bmax (maximum measured BRET value) (GIPR): 1.316 ± 0.203
Bmax (maximum measured BRET value) (CLR): 0.460 ± 0.017
Bmax (maximum measured BRET value) (GCGR): 1.149 ± 0.109
Bmax (maximum measured BRET value) (GLP-2R; [19]): Linear fit
Molecule: receptor activity-modulating protein 1 [RAMP1]
Bmax (maximum measured BRET value) (SCTR [12]): 0.573 ± 0.021
interaction in words (GHRHR [13]): insignificant
RAMP cell surface expression (COS-7 cells): promoted cell surface translocation
interaction in words (GLP-2R; BRET): poor interaction; also recorded: rather weak

Molecule: secretin
Emax (SCTR [15]; RAMP1): 127.7 ± 13.5%
Emax (SCTR [15]; RAMP3): 97.8 ± 21.1%
Emax (SCTR [15]; vector (no RAMP)): 100 ± 14.1%
Emax (SCTR [16]; RAMP1): 81 ± 6.2%
Emax (SCTR [16]; RAMP3): 67 ± 4.2∗∗ %
Emax (SCTR [16]; vector (no RAMP)): 100 ± 4%
Emax (SCTR [17]): 100 ± 1%
Emax (SCTR [18]; RAMP1): 91.8 ± 3.6%
Emax (SCTR [18]; RAMP3): 69.1 ± 4.9∗∗ %
Emax (SCTR [18]; vector (no RAMP)): 100 ± 5.6%
